Active and inactive are the calls of the source. The calls are words filed in the database; no cut-off is given here.
What was measured:
MOLT-4 = assay: Antiproliferative activity against human MOLT-4 cells assessed as reduction in cell viability measured after 48 hrs by MTS assay; format: functional, cell-based; settings: MOLT-4, 48 h
[1] = molecular target: Protein cereblon/Apoptosis regulator Bcl-2 (Homo sapiens) (UniProt P10415+Q96SW2); assay: Protac activity at CRBN/BCL2 in human MOLT-4 cells assessed as induction of BCL2 degradation at 50 nM measured after 16 hrs by immunoblotting analysis; format: cell-based
[2] = molecular target: Protein cereblon/Bcl-2-like protein 1 (Homo sapiens, UniProt Q07817+Q96SW2); assay: Protac activity at CRBN/BCL-XL in human MOLT-4 cells assessed as induction of BCL-XL degradation by measuring remaining BCL-XL level at 50 nM measured after 16 hrs by immunoblotting analysis relative to control; format: cell-based
[3] = molecular target: von Hippel-Lindau disease tumor suppressor/Bcl-2-like protein 1 (Homo sapiens, UniProt Q07817+P40337); assay: Protac activity at VHL/BCL-XL in human MOLT-4 cells assessed as induction of BCL-XL degradation by measuring remaining BCL-XL level at 100 nM measured after 16 hrs by immunoblotting analysis relative to control; format: cell-based
[4] = molecular target: von Hippel-Lindau disease tumor suppressor/Apoptosis regulator Bcl-2 (Homo sapiens) (UniProt P10415+P40337); assay: Protac activity at VHL/BCL2 in human MOLT-4 cells assessed as induction of BCL2 degradation at 100 nM measured after 16 hrs by immunoblotting analysis; format: cell-based
von Hippel-Lindau disease tumor suppressor/Apoptosis regulator Bcl-2 (Homo sapiens), sequence (P10415 whole entry, looked up): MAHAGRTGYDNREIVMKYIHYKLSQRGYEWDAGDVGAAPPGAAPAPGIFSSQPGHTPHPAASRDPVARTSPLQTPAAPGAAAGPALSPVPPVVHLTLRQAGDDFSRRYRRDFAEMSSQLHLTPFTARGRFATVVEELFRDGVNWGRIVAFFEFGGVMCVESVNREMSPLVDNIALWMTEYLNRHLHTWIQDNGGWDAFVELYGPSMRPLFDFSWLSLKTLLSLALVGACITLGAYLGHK
von Hippel-Lindau disease tumor suppressor/Apoptosis regulator Bcl-2 (Homo sapiens), sequence (P40337 whole entry, looked up): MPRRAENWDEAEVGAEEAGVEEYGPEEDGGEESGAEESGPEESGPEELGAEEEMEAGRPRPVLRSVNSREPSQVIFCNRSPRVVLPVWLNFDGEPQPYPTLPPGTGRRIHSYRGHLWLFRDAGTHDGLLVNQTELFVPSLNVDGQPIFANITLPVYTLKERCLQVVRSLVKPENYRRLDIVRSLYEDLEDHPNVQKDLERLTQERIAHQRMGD

Protein cereblon/Bcl-2-like protein 1, sequence (Q07817 whole entry, looked up): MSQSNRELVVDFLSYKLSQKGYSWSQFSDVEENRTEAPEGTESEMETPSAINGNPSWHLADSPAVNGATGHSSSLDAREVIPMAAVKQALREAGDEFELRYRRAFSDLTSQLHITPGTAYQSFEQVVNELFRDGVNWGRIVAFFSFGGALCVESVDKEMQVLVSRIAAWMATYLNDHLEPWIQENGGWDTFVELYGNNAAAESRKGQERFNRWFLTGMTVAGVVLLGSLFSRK
Protein cereblon/Bcl-2-like protein 1, sequence (Q96SW2 whole entry, looked up): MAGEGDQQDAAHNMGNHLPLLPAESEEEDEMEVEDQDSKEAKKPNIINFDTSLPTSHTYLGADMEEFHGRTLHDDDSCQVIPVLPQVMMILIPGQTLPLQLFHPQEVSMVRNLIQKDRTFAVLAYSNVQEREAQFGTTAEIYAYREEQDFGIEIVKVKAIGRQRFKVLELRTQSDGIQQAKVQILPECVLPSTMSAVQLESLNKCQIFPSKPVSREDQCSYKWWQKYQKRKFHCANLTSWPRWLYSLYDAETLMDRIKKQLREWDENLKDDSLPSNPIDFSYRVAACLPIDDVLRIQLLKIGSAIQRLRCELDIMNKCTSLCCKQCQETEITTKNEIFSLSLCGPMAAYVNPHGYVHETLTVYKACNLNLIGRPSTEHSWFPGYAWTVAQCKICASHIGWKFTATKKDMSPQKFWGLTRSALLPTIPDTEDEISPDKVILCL
Protein cereblon/Apoptosis regulator Bcl-2 (Homo sapiens), sequence (P10415 whole entry, looked up): as the sequence (P10415 whole entry, looked up) above
Protein cereblon/Apoptosis regulator Bcl-2 (Homo sapiens), sequence (Q96SW2 whole entry, looked up): as the sequence (Q96SW2 whole entry, looked up) above
von Hippel-Lindau disease tumor suppressor/Bcl-2-like protein 1, sequence (P40337 whole entry, looked up): as the sequence (P40337 whole entry, looked up) above
von Hippel-Lindau disease tumor suppressor/Bcl-2-like protein 1, sequence (Q07817 whole entry, looked up): as the sequence (Q07817 whole entry, looked up) above

IC50 (MOLT-4) [nM]	Activity [1]	Activity [2] [%]	Activity [3] [%]	Activity [4]	Structure (SMILES)
139	–	–	49	inactive	Cc1ncsc1-c1ccc([C@H](C)NC(=O)[C@@H]2C[C@@H](O)CN2C(=O)[C@@H](NC(=O)CCCCCCCCN(C)CC[C@H](CSc2ccccc2)Nc2ccc(S(=O)(=O)NC(=O)c3ccc(N4CCN(CC5=C(c6ccc(Cl)cc6)CCC(C)(C)C5)CC4)cc3)cc2S(=O)(=O)C(F)(F)F)C(C)(C)C)cc1
–	inactive	30	–	–	CC1(C)CCC(c2ccc(Cl)cc2)=C(CN2CCN(c3ccc(C(=O)NS(=O)(=O)c4ccc(N[C@H](CCN5CCN(CCCNc6cccc7c6C(=O)N([C@@H]6CCC(=O)NC6=O)C7=O)CC5)CSc5ccccc5)c(S(=O)(=O)C(F)(F)F)c4)cc3)CC2)C1 (mixture of isomers)
211	inactive	21	–	–	CC1(C)CCC(c2ccc(Cl)cc2)=C(CN2CCN(c3ccc(C(=O)NS(=O)(=O)c4ccc(N[C@H](CCN5CCN(C(=O)COCCOCCOCCNc6cccc7c6C(=O)N([C@@H]6CCC(=O)NC6=O)C7=O)CC5)CSc5ccccc5)c(S(=O)(=O)C(F)(F)F)c4)cc3)CC2)C1
179	inactive	29	–	–	CN(CC[C@H](CSc1ccccc1)Nc1ccc(S(=O)(=O)NC(=O)c2ccc(N3CCN(CC4=C(c5ccc(Cl)cc5)CCC(C)(C)C4)CC3)cc2)cc1S(=O)(=O)C(F)(F)F)C(=O)CCCCCCn1cc(COCCOCCOCCNc2cccc3c2C(=O)N([C@@H]2CCC(=O)NC2=O)C3=O)nn1
19.3	inactive	5	–	–	CN(CCOCCOCCOCCOCCNc1cccc2c1C(=O)N([C@@H]1CCC(=O)NC1=O)C2=O)CC[C@H](CSc1ccccc1)Nc1ccc(S(=O)(=O)NC(=O)c2ccc(N3CCN(CC4=C(c5ccc(Cl)cc5)CCC(C)(C)C4)CC3)cc2)cc1S(=O)(=O)C(F)(F)F
41.4	inactive	13	–	–	CC1(C)CCC(c2ccc(Cl)cc2)=C(CN2CCN(c3ccc(C(=O)NS(=O)(=O)c4ccc(N[C@H](CCN5CCN(CCOCCOCCNc6cccc7c6C(=O)N([C@@H]6CCC(=O)NC6=O)C7=O)CC5)CSc5ccccc5)c(S(=O)(=O)C(F)(F)F)c4)cc3)CC2)C1
518	inactive	63	–	–	CC1(C)CCC(c2ccc(Cl)cc2)=C(CN2CCN(c3ccc(C(=O)NS(=O)(=O)c4ccc(N[C@H](CCN5CCN(C(=O)CCCCCNc6cccc7c6C(=O)N([C@@H]6CCC(=O)NC6=O)C7=O)CC5)CSc5ccccc5)c(S(=O)(=O)C(F)(F)F)c4)cc3)CC2)C1
> 2000	inactive	101	–	–	CC1(C)CCC(c2ccc(Cl)cc2)=C(CN2CCN(c3ccc(C(=O)NS(=O)(=O)c4ccc(N[C@H](CCN5CCN(C(=O)CCCCCCNc6cccc7c6C(=O)N([C@@H]6CCC(=O)NC6=O)C7=O)CC5)CSc5ccccc5)c(S(=O)(=O)C(F)(F)F)c4)cc3)CC2)C1
126	inactive	11	–	–	CC1(C)CCC(c2ccc(Cl)cc2)=C(CN2CCN(c3ccc(C(=O)NS(=O)(=O)c4ccc(N[C@H](CCN5CCN(C(=O)COCCOCCOCCOCCNc6cccc7c6C(=O)N([C@@H]6CCC(=O)NC6=O)C7=O)CC5)CSc5ccccc5)c(S(=O)(=O)C(F)(F)F)c4)cc3)CC2)C1
> 2000	inactive	89	–	–	CC1(C)CCC(c2ccc(Cl)cc2)=C(CN2CCN(c3ccc(C(=O)NS(=O)(=O)c4ccc(N[C@H](CCN5CCN(C(=O)CCCCCCCNc6cccc7c6C(=O)N([C@@H]6CCC(=O)NC6=O)C7=O)CC5)CSc5ccccc5)c(S(=O)(=O)C(F)(F)F)c4)cc3)CC2)C1
770	inactive	66	–	–	CN(CC[C@H](CSc1ccccc1)Nc1ccc(S(=O)(=O)NC(=O)c2ccc(N3CCN(CC4=C(c5ccc(Cl)cc5)CCC(C)(C)C4)CC3)cc2)cc1S(=O)(=O)C(F)(F)F)C(=O)CCCn1cc(COCCOCCNc2cccc3c2C(=O)N([C@@H]2CCC(=O)NC2=O)C3=O)nn1
–	inactive	44	–	–	CC1(C)CCC(c2ccc(Cl)cc2)=C(CN2CCN(c3ccc(C(=O)NS(=O)(=O)c4ccc(N[C@H](CCN5CCN(C(=O)CCCNc6cccc7c6C(=O)N([C@@H]6CCC(=O)NC6=O)C7=O)CC5)CSc5ccccc5)c(S(=O)(=O)C(F)(F)F)c4)cc3)CC2)C1

More lines, now with the values behind:

Structure (SMILES)	IC50 (MOLT-4) [nM]	Activity [1]	Activity [2] [%]	Activity [3] [%]	Activity [4]
CC1(C)CCC(c2ccc(Cl)cc2)=C(CN2CCN(c3ccc(C(=O)NS(=O)(=O)c4ccc(N[C@H](CCN5CCN(CCOCCNc6cccc7c6C(=O)N([C@@H]6CCC(=O)NC6=O)C7=O)CC5)CSc5ccccc5)c(S(=O)(=O)C(F)(F)F)c4)cc3)CC2)C1	60.5	inactive	20	–	–
CN(CCCCCNc1cccc2c1C(=O)N([C@@H]1CCC(=O)NC1=O)C2=O)CC[C@H](CSc1ccccc1)Nc1ccc(S(=O)(=O)NC(=O)c2ccc(N3CCN(CC4=C(c5ccc(Cl)cc5)CCC(C)(C)C4)CC3)cc2)cc1S(=O)(=O)C(F)(F)F	60.9	inactive	47	–	–
CC1(C)CCC(c2ccc(Cl)cc2)=C(CN2CCN(c3ccc(C(=O)NS(=O)(=O)c4ccc(N[C@H](CCN5CCN(C(=O)CCCCNc6cccc7c6C(=O)N([C@@H]6CCC(=O)NC6=O)C7=O)CC5)CSc5ccccc5)c(S(=O)(=O)C(F)(F)F)c4)cc3)CC2)C1	346	inactive	81	–	–
CC1(C)CCC(c2ccc(Cl)cc2)=C(CN2CCN(c3ccc(C(=O)NS(=O)(=O)c4ccc(N[C@H](CCN5CCN(CCCCCNc6cccc7c6C(=O)N([C@@H]6CCC(=O)NC6=O)C7=O)CC5)CSc5ccccc5)c(S(=O)(=O)C(F)(F)F)c4)cc3)CC2)C1	100	inactive	45	–	–
CN(CCOCCOCCNc1cccc2c1C(=O)N([C@@H]1CCC(=O)NC1=O)C2=O)CC[C@H](CSc1ccccc1)Nc1ccc(S(=O)(=O)NC(=O)c2ccc(N3CCN(CC4=C(c5ccc(Cl)cc5)CCC(C)(C)C4)CC3)cc2)cc1S(=O)(=O)C(F)(F)F	35	inactive	11	–	–
CC1(C)CCC(c2ccc(Cl)cc2)=C(CN2CCN(c3ccc(C(=O)NS(=O)(=O)c4ccc(N[C@H](CCN5CCN(C(=S)NCCOCCOCCNc6cccc7c6C(=O)N([C@@H]6CCC(=O)NC6=O)C7=O)CC5)CSc5ccccc5)c(S(=O)(=O)C(F)(F)F)c4)cc3)CC2)C1 (racemic)	722	inactive	76	–	–
CC1(C)CCC(c2ccc(Cl)cc2)=C(CN2CCN(c3ccc(C(=O)NS(=O)(=O)c4ccc(N[C@H](CCN5CCN(C(=O)COCCOCCNc6cccc7c6C(=O)N([C@@H]6CCC(=O)NC6=O)C7=O)CC5)CSc5ccccc5)c(S(=O)(=O)C(F)(F)F)c4)cc3)CC2)C1	161	inactive	20	–	–
CN(CCCCCCNc1cccc2c1C(=O)N([C@@H]1CCC(=O)NC1=O)C2=O)CC[C@H](CSc1ccccc1)Nc1ccc(S(=O)(=O)NC(=O)c2ccc(N3CCN(CC4=C(c5ccc(Cl)cc5)CCC(C)(C)C4)CC3)cc2)cc1S(=O)(=O)C(F)(F)F	147	inactive	73	–	–
CN(CCCCCCCn1cc(COCCOCCOCCNc2cccc3c2C(=O)N([C@@H]2CCC(=O)NC2=O)C3=O)nn1)CC[C@H](CSc1ccccc1)Nc1ccc(S(=O)(=O)NC(=O)c2ccc(N3CCN(CC4=C(c5ccc(Cl)cc5)CCC(C)(C)C4)CC3)cc2)cc1S(=O)(=O)C(F)(F)F	–	inactive	24	–	–
CN(CC[C@H](CSc1ccccc1)Nc1ccc(S(=O)(=O)NC(=O)c2ccc(N3CCN(CC4=C(c5ccc(Cl)cc5)CCC(C)(C)C4)CC3)cc2)cc1S(=O)(=O)C(F)(F)F)C(=O)CCCn1cc(COCCOCCOCCNc2cccc3c2C(=O)N([C@@H]2CCC(=O)NC2=O)C3=O)nn1	769	inactive	67	–	–
CC1(C)CCC(c2ccc(Cl)cc2)=C(CN2CCN(c3ccc(C(=O)NS(=O)(=O)c4ccc(N[C@H](CCN5CCN(C(=O)NCCOCCOCCNc6cccc7c6C(=O)N([C@@H]6CCC(=O)NC6=O)C7=O)CC5)CSc5ccccc5)c(S(=O)(=O)C(F)(F)F)c4)cc3)CC2)C1	118	inactive	27	–	–
CN(CCCCNc1cccc2c1C(=O)N([C@@H]1CCC(=O)NC1=O)C2=O)CC[C@H](CSc1ccccc1)Nc1ccc(S(=O)(=O)NC(=O)c2ccc(N3CCN(CC4=C(c5ccc(Cl)cc5)CCC(C)(C)C4)CC3)cc2)cc1S(=O)(=O)C(F)(F)F	38.7	inactive	40	–	–
CC1(C)CCC(c2ccc(Cl)cc2)=C(CN2CCN(c3ccc(C(=O)NS(=O)(=O)c4ccc(N[C@H](CCN5CCN(CCCCNc6cccc7c6C(=O)N([C@@H]6CCC(=O)NC6=O)C7=O)CC5)CSc5ccccc5)c(S(=O)(=O)C(F)(F)F)c4)cc3)CC2)C1	43	inactive	20	–	–
CN(CCCCCCCCNc1cccc2c1C(=O)N([C@@H]1CCC(=O)NC1=O)C2=O)CC[C@H](CSc1ccccc1)Nc1ccc(S(=O)(=O)NC(=O)c2ccc(N3CCN(CC4=C(c5ccc(Cl)cc5)CCC(C)(C)C4)CC3)cc2)cc1S(=O)(=O)C(F)(F)F	> 2000	inactive	94	–	–
CN(CC[C@H](CSc1ccccc1)Nc1ccc(S(=O)(=O)NC(=O)c2ccc(N3CCN(CC4=C(c5ccc(Cl)cc5)CCC(C)(C)C4)CC3)cc2)cc1S(=O)(=O)C(F)(F)F)C(=O)CCCCCCn1cc(COCCOCCNc2cccc3c2C(=O)N([C@@H]2CCC(=O)NC2=O)C3=O)nn1	177	inactive	28	–	–

From ChEMBL document CHEMBL4680217, “Discovery of PROTAC BCL-X degraders as potent anticancer agents with low on-target platelet toxicity” (Eur J Med Chem, 2020)
